From patent US20180099931A1 (AbbVie S.à.r.l., priority 2016, published 2018)
Like-named read-outs stand apart in the source and are kept apart here.

Biological target: T1, F508delCFTR (Homo sapiens, UniProt P13569, DEL508-508)
T1 construct: expressed in transfected cells; host or cells: CFBE41o- human lung-derived epithelial cells (CFBE4lo-F508delCFTR-HRP), doxycycline-inducible
Assay: Cell Surface Expression-Horse Radish Peroxidase (CSE-HRP) Assay;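 for Maximum % activity (with co-corrector): co-corrector and positive control are both the same reference corrector at 2 µM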;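 for Maximum % activity (without co-corrector): percent of the 2 µM on-plate positive control corrector response above DMSO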
Format: cell-based
Conditions: for Maximum % activity (with co-corrector) / Emax: maximum at any tested concentration, normalized to on-plate positive control; for Emax: read-out: Maximum % activity (without co-corrector)

[1] = test compound without co-corrector, read-out: EC50 (without co-corrector)
[2] = with co-corrector (2 μM of 3-[(2R,4R)-4-({[1-(2,2-difluoro-1,3-benzodioxol-5-yl)cyclopropyl]carbonyl}amino)-7-methoxy-3,4-dihydro-2H-chromen-2-yl]benzoic acid), read-out: EC50 (with co-corrector)
[3] = test compound without co-corrector
[4] = with co-corrector (2 μM of 3-[(2R,4R)-4-({[1-(2,2-difluoro-1,3-benzodioxol-5-yl)cyclopropyl]carbonyl}amino)-7-methoxy-3,4-dihydro-2H-chromen-2-yl]benzoic acid)
[5] = CSE-HRP, test compound without co-corrector, read-out: EC50 (without co-corrector)
[6] = CSE-HRP, with co-corrector (2 μM of 3-[(2R,4R)-4-({[1-(2,2-difluoro-1,3-benzodioxol-5-yl)cyclopropyl]carbonyl}amino)-7-methoxy-3,4-dihydro-2H-chromen-2-yl]benzoic acid), read-out: EC50 (with co-corrector)
[7] = CSE-HRP, with co-corrector (2 μM)

T1 sequence (P13569 with tags, fused parts or gaps DEL508-508): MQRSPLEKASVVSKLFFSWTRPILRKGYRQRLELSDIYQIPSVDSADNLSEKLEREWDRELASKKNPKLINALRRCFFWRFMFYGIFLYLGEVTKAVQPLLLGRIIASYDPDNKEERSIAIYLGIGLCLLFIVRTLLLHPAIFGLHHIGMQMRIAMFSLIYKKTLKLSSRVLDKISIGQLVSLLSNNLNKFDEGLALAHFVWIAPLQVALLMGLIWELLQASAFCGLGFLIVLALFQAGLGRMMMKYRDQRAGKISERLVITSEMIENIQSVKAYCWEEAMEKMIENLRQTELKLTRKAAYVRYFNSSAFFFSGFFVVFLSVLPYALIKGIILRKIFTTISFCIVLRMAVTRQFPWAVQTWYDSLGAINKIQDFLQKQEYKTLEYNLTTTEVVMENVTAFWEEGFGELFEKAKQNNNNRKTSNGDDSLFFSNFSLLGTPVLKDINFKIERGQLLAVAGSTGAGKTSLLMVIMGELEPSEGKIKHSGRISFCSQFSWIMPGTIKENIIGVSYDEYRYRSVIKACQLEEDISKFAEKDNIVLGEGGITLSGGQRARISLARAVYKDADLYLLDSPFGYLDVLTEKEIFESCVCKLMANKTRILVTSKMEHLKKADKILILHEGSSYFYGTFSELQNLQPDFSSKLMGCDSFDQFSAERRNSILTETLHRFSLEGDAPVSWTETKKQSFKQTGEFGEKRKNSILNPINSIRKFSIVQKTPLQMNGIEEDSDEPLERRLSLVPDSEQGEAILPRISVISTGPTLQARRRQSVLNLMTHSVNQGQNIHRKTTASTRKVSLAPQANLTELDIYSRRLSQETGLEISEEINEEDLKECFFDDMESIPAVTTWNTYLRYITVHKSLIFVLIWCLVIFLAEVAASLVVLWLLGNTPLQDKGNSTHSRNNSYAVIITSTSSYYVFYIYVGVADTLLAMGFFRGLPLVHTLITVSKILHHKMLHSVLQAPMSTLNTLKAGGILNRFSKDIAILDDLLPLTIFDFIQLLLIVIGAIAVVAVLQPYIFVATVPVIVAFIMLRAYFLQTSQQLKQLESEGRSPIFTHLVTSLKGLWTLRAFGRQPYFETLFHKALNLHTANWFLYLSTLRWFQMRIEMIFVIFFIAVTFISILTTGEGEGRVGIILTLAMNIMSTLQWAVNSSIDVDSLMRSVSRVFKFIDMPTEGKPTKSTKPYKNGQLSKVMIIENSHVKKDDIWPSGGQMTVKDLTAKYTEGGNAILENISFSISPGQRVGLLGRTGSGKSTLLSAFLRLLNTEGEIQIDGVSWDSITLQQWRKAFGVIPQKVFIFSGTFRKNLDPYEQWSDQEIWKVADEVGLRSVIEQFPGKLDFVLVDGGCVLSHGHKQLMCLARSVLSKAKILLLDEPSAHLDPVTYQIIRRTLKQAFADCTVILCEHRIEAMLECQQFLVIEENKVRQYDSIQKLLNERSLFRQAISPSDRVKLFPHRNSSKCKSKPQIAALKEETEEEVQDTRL

Structure (SMILES) | EC50 [1] [µM] | EC50 [2] [µM] | Maximum % activity (with co-corrector) (with co-corrector (2 μM)) | Emax (without co-corrector) [%] | Emax [3] [%] | Maximum % activity (with co-corrector) [4] | EC50 [5] [µM] | EC50 [6] [µM] | Maximum % activity (with co-corrector) [7] | Emax (CSE-HRP, without co-corrector) [%]
COc1ccc(C(F)(F)F)cc1CN[C@H]1[C@H](C(C)(C)OC)[C@@H](C(=O)O)N(C(=O)OC(C)C)[C@H]1c1ccccc1 [Example I-174] | 1 to 10 | 1 to 10 | +++ (≥350) | > 200 | – | – | – | – | – | –
COc1ccc(-c2c(C)noc2C)cc1CN[C@H]1[C@H](C(C)(C)C)[C@@H](C(=O)O)N(C(=O)C2CCCCC2)[C@H]1c1ccccc1 [II-285] | – | – | – | – | – | – | 1 to 10 | 1 to 10 | +++ (≥350) | 100 to 200
COc1ncc(-c2ccc(F)cc2F)cc1CN[C@H]1[C@H](C(C)(C)C)[C@@H](C(=O)O)N(C(=O)C2CCCCC2)[C@H]1c1cccnc1N(C)C [II-406] | < 1 | < 1 | – | – | 100 to 200 | +++ (≥350) | – | – | – | –
COc1ccc(C(C)(C)C)cc1CN[C@H]1[C@H](C(C)(C)C)[C@@H](C(=O)O)N(C(=O)C2CCCCO2)[C@H]1c1ccccc1 (stereo partly shown) [II-318] | 1 to 10 | 1 to 10 | – | – | > 200 | +++ (≥350) | – | – | – | –
COc1cc(C(F)(F)F)ccc1CN[C@H]1[C@H](C(C)(C)C)[C@@H](C(=O)O)N(C(=O)[C@H]2CCCCO2)[C@H]1c1ccccc1 [II-81] | – | – | – | – | – | – | 1 to 10 | 1 to 10 | +++ (≥350) | 100 to 200
COc1cc(C(F)(F)F)ccc1CN[C@H]1[C@H](C(C)(C)C)[C@@H](C(=O)O)N(C(=O)[C@@H]2CCC[C@H](O)C2)[C@H]1c1ccccc1 [II-538] | 1 to 10 | 1 to 10 | – | – | 100 to 200 | +++ (≥350) | – | – | – | –
COc1ccc(-c2ccccc2C#N)cc1CN[C@H]1[C@H](C(C)(C)C)[C@@H](C(=O)O)N(C(=O)C2CCCCC2)[C@H]1c1ccccc1 [Example I-128] | 1 to 10 | 1 to 10 | +++ (≥350) | 100 to 200 | – | – | – | – | – | –
COc1cc(C(F)(F)F)ccc1CN[C@H]1[C@H](C(C)(C)C)[C@@H](C(=O)O)N(C(=O)OC(C)C)[C@H]1c1cccnc1N(C)C [II-514] | 1 to 10 | 1 to 10 | – | – | 100 to 200 | +++ (≥350) | – | – | – | –
COc1ccc(C(C)(C)C)cc1CN[C@H]1[C@H](C2(C)CC2)[C@@H](C(=O)O)N(C(=O)C2CCCCC2)[C@H]1c1ccccc1 [II-302] | – | – | – | – | – | – | 1 to 10 | < 1 | +++ (≥350) | > 200
COc1ncc(C2CCC2)cc1CN[C@H]1[C@H](C(C)(C)C)[C@@H](C(=O)O)N(C(=O)C2CCCCC2)[C@H]1c1cccnc1N(C)C [Example I-131] | 1 to 10 | 1 to 10 | +++ (≥350) | > 200 | – | – | – | – | – | –
COc1ncc(C(F)(F)F)cc1CN[C@H]1[C@H](C23CC(C2)C3)[C@@H](C(=O)O)N(C(=O)C2CCCCC2)[C@H]1c1ccccc1 [Example 57, (2S,3S,4S,5S)-3-(bicyclo[1.1.1.1]pentan-1-yl)-1-(cyclohexanecarbonyl)-4-({[2-methoxy-5-(trifluoromethyl)pyridin-3-yl]methyl}amino)-5-phenylpyrrolidine-2-carboxylic acid] | < 1 | < 1 | +++ (≥350) | 100 to 200 | – | – | – | – | – | –
COc1ccc(C2CC3CCC2C3)cc1CN[C@H]1[C@H](C(C)(C)OC)[C@@H](C(=O)O)N(C(=O)C2CCCCC2)[C@H]1c1ccccc1 (stereo partly shown) [Example I-117] | 1 to 10 | < 1 | +++ (≥350) | > 200 | – | – | – | – | – | –
COc1nc(C(F)(F)F)ccc1CN[C@@H]1[C@@H](C(C)(C)C)[C@H](C(=O)O)N(C(=O)C2CCCCC2)[C@@H]1c1ccccc1 (racemic) [II-77] | – | – | – | – | – | – | 1 to 10 | 1 to 10 | +++ (≥350) | 100 to 200
COc1cc(C(F)(F)F)ccc1CN[C@H]1[C@H](C(C)(C)C)[C@@H](C(=O)O)N(C(=O)C2CCCCC2)[C@H]1c1ccccc1 [Example 8, (2S,3S,4S,5S)-3-tert-butyl-1-(cyclohexanecarbonyl)-4-({[2-methoxy-4-(trifluoromethyl)phenyl]methyl}amino)-5-phenylpyrrolidine-2-carboxylic acid] | 1 to 10 | < 1 | +++ (≥350) | 100 to 200 | – | – | – | – | – | –
COc1ccc(C(C)(C)C)cc1CN[C@H]1[C@H](C(C)(C)C)[C@@H](C(=O)O)N(C(=O)C2(C)CCc3c(Cl)cccc32)[C@H]1c1ccccc1 (stereo partly shown) [II-367] | 1 to 10 | 1 to 10 | – | – | 100 to 200 | +++ (≥350) | – | – | – | –
COc1ncc(-c2ccc(C)cc2)cc1CN[C@H]1[C@H](C(C)(C)C)[C@@H](C(=O)O)N(C(=O)C2CCCCC2)[C@H]1c1cccnc1N(C)C [II-410] | < 1 | < 1 | – | – | 100 to 200 | +++ (≥350) | – | – | – | –
CC(C)OC(=O)N1[C@H](C(=O)O)[C@@H](C(C)(C)C)[C@H](NCC(C)(C)c2ccccc2)[C@@H]1c1ccccc1 [Example I-264] | – | – | – | – | – | – | 1 to 10 | 1 to 10 | ++ (≥150 and <350) | < 100
CC(C)(C)[C@H]1[C@H](NCc2cccc(C(F)(F)F)c2)[C@H](c2ccccc2)N(C(=O)C2CCCCC2)[C@@H]1C(=O)O [II-122] | – | – | – | – | – | – | 1 to 10 | 1 to 10 | ++ (≥150 and <350) | < 100
COc1ccc(C(C)(C)C)cc1CN[C@H]1[C@H](C(C)(C)C)[C@@H](C(=O)O)N(C(=O)C2CCCCN2S(C)(=O)=O)[C@H]1c1ccccc1 (stereo partly shown) [Example I-138] | 1 to 10 | 1 to 10 | +++ (≥350) | > 200 | – | – | – | – | – | –
COc1ncc(C2CCC2)cc1CN[C@H]1[C@H](C(C)(C)C)[C@@H](C(=O)O)N(C(=O)[C@@H]2CCCO2)[C@H]1c1ccccc1C(F)(F)F [Example I-286] | – | – | – | – | – | – | 1 to 10 | < 1 | +++ (≥350) | 100 to 200
COc1cc(Cl)nc(N[C@@H]2[C@@H](C(C)(C)C)[C@H](C(=O)O)N(C(=O)C3CCCCC3)[C@@H]2c2ccccc2)n1 (racemic) [Example I-2] | 1 to 10 | 1 to 10 | +++ (≥350) | < 100 | – | – | – | – | – | –
COc1ccc(C(F)(F)F)cc1CN[C@@H]1[C@@H](C(C)(C)C)[C@H](C(=O)O)N(C(=O)C2CCCCC2)[C@@H]1c1ccccc1 (racemic) [Example I-6] | 1 to 10 | 1 to 10 | +++ (≥350) | > 200 | – | – | – | – | – | –
COc1ccc(-c2cccs2)cc1CN[C@H]1[C@H](C(C)(C)C)[C@@H](C(=O)O)N(C(=O)C2CCCCC2)[C@H]1c1ccccc1 [II-275] | – | – | – | – | – | – | < 1 | < 1 | +++ (≥350) | > 200

The next lines start with the values.

EC50 [1] [µM] | EC50 [2] [µM] | Maximum % activity (with co-corrector) (with co-corrector (2 μM)) | Emax (without co-corrector) [%] | Emax [3] [%] | Maximum % activity (with co-corrector) [4] | EC50 [5] [µM] | EC50 [6] [µM] | Maximum % activity (with co-corrector) [7] | Emax (CSE-HRP, without co-corrector) [%] | Structure (SMILES)
> 10 | 1 to 10 | – | – | < 100 | ++ (≥150 and <350) | – | – | – | – | CC(C)(C)[C@@H]1[C@@H](NCc2cc(C(F)(F)F)cnc2N)[C@@H](c2ccccc2)N(C(=O)C2CCCCC2)[C@H]1C(=O)O (racemic) [III-74]
> 10 | 1 to 10 | + (<150) | – | < 100 | – | – | – | – | – | CC(C)(C)NC(=O)c1ccc(N[C@H]2[C@H](C(C)(C)C)[C@@H](C(=O)O)N(C(=O)C3CCCCC3)[C@H]2c2ccccc2)nc1 [III-155]
< 1 | < 1 | +++ (≥350) | – | > 200 | – | – | – | – | – | COc1ccc(C(C)(C)C)cc1CN[C@H]1[C@H](C(C)(C)C)[C@@H](C(=O)O)N(C(=O)C2CCCC(C)(C)C2)[C@H]1c1ccccc1 (stereo partly shown) [III-203]
1 to 10 | < 1 | +++ (≥350) | – | < 100 | – | – | – | – | – | CC(C)Oc1ccc(Cl)cc1CN[C@H]1[C@H](C(C)(C)C)[C@@H](C(=O)O)N(C(=O)C2CCCCC2)[C@H]1c1ccccc1 [III-124]
> 10 | 1 to 10 | – | – | < 100 | ++ (≥150 and <350) | – | – | – | – | Cc1cc(C(F)(F)F)cc(N[C@@H]2[C@@H](C(C)(C)C)[C@H](C(=O)NS(=O)(=O)C(C)(C)C)N(C(=O)C3CCCCC3)[C@@H]2c2ccccc2)n1 (racemic) [III-50]
> 10 | 1 to 10 | ++ (≥150 and <350) | – | < 100 | – | – | – | – | – | COc1ccc(Cl)cc1CN[C@@H]1[C@@H](C(C)(C)C)[C@H](C(=O)O)N(C(=O)[C@H](OC)c2ccccc2)[C@@H]1c1ccccc1N(C)C [III-99]
1 to 10 | 1 to 10 | ++ (≥150 and <350) | – | < 100 | – | – | – | – | – | COc1ccc(C(F)(F)F)cc1CN[C@H]1[C@H](C(C)(C)C)[C@@H](C(=O)O)N(C(=O)[C@H]2CCCC(F)(F)C2)[C@H]1c1ccccc1 [III-185]
1 to 10 | 1 to 10 | – | – | < 100 | ++ (≥150 and <350) | – | – | – | – | CC(C)(C)[C@@H]1[C@@H](NCc2cccnc2N2CCOCC2)[C@@H](c2ccccc2)N(C(=O)C2CCCCC2)[C@H]1C(=O)O (racemic) [III-28]
